Assay results: patent US20220370453A1 (Storm Therapeutics Ltd, priority 2019, published 2022)

Tests used:
BCDIN3D [1] = target: T1, BCDIN3D (Homo sapiens, UniProt Q7Z5W3); experiment: BCDIN3D InCellPulse thermal stability assay in transfected A549 cells; type: cell-based; settings: heat shock 58° C. 15 min
T1 sequence (Q7Z5W3 1-292): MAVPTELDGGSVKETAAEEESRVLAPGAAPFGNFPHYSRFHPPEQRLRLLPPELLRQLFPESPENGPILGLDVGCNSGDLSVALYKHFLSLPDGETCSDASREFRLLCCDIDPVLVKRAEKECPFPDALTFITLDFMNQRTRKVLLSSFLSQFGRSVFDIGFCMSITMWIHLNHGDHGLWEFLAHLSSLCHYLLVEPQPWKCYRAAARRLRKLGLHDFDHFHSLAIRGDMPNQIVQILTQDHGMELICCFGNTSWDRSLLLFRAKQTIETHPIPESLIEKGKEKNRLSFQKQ
Summary of the method: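 Thermal stabilisation read-out: after a 15 min 58 °C heat shock, ePL-tagged BCDIN3D in transiently transfected A549 cells (1500/well) was quantified by enzyme-fragment complementation luminescence. Compounds were pre-incubated with cells 1 h at 37 °C, 0.6% DMSO final.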

BCDIN3D [2] = target: T1, BCDIN3D; experiment: BCDIN3D IC50 RFMS (RapidFire) assay with mini-helix; type: biochemical; settings: 25 nM enzyme
Summary of the method: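 SAH formation was measured by RapidFire mass spectrometry with D4- and 13C10-SAH internal standards after TCA quench. Substrates 6 μM SAM and 0.2 μM mini-helix reacted 1 h at 37 °C with 25 nM enzyme, which had been preincubated 10 min with compound (1% DMSO) in Tris pH 8.0 buffer with DTT, EDTA, BSA.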

[3] = transiently transfected A549 cells
[4] = mini-helix substrate 0.2 μM, SAM 6 μM
[5] = A549 cells transiently transfected with ePL-BCDIN3D, 1 h pre-incubation
[6] = mini-helix 0.2 μM and SAM 6 μM as substrates, 1 hr at 37° C.

Row | IC50 (BCDIN3D [1]; [3]) [nM] | IC50 (BCDIN3D [2]; [4]) [nM] | IC50 (BCDIN3D [1]; [5]) [nM] | IC50 (BCDIN3D [2]; [6]) [nM] | Compound
1 | 124 | 61.7 | – | – | Cn1ncc2c(NC(C)(C)C(F)(F)F)nc(NC[C@H](N)c3cccc(C#N)c3)nc21 [Compound 5.23, 3-[(1R)-1-amino-2-[[1-methyl-4-[(2,2,2-trifluoro-1,1-dimethyl-ethyl)amino]pyrazolo[3,4-d]pyrimidin-6-yl]amino]ethyl]benzonitrile]
2 | 1110 | 1100 | – | – | Cn1ncc2c(NC(C)(C)C)nc(NCC(N)c3ccccn3)nc21 (stereo not drawn) [Compound 5.06, N6-[2-amino-2-(2-pyridyl)ethyl]-N4-tert-butyl-1-methyl-pyrazolo[3,4-d]pyrimidine-4,6-diamine]
3 | 129 | 42.8 | – | – | Cn1ncc2c(NC(C)(C)C)nc(NCC(N)c3cccc(C#N)c3)nc21 (stereo not drawn) [Compound 5.22, 3-[1-amino-2-[[4-(tert-butylamino)-1-methyl-pyrazolo[3,4-d]pyrimidin-6-yl]amino]ethyl]benzonitrile]
4 | – | – | 899 | 998 | Cc1ccc(CNc2nc(N[C@H]3CCCC[C@H]3N)nc3c2cnn3C)cc1Cl [Compound 7.02, 6-N-[(1S,2R)-2-aminocyclohexyl]-4-N-[(3-chloro-4-methylphenyl)methyl]-1-methylpyrazolo[3,4-d]pyrimidine-4,6-diamine]

Second part, the compound before the results:

Row | Compound | IC50 (BCDIN3D [1]; [3]) [nM] | IC50 (BCDIN3D [2]; [4]) [nM] | IC50 (BCDIN3D [1]; [5]) [nM] | IC50 (BCDIN3D [2]; [6]) [nM]
5 | Cn1ncc2c(NC34CC(C#N)(C3)C4)nc(NCC3(N)CC3)nc21 [Compound 2.37, 3-[[6-[(1-aminocyclopropyl)methylamino]-1-methylpyrazolo[3,4-d]pyrimidin-4-yl]amino]bicyclo[1.1.1]pentane-1-carbonitrile] | 16500 | 8600 | – | –
6 | [2H]C([2H])([2H])n1ncc2c(Nc3ccc(C(F)(F)F)cc3)nc(NCC(N)c3ccccc3)nc21 (stereo not drawn) [Compound 4.20, N6-(2-amino-2-phenyl-ethyl)-1-(trideuteriomethyl)-N4-[4-(trifluoromethyl)phenyl]pyrazolo[3,4-d]pyrimidine-4,6-diamine] | 60.4 | 38.5 | – | –
7 | Cn1ncc2c(Nc3cc(F)ccc3F)nc(NCC3(N)CC3)nc21 [Compound 2.25, 6-N-[(1-aminocyclopropyl)methyl]-4-N-(2,5-difluorophenyl)-1-methylpyrazolo[3,4-d]pyrimidine-4,6-diamine] | 3520 | 1540 | – | –
8 | Cn1ncc2c(Nc3ccc(OC(F)F)cc3)nc(NCC(C)(N)c3ccccc3)nc21 (stereo not drawn) [Compound 4.15, 6-N-(2-amino-2-phenylpropyl)-4-N-[4-(difluoromethoxy)phenyl]-1-methylpyrazolo[3,4-d]pyrimidine-4,6-diamine] | 295 | 69.4 | – | –
9 | COc1cccc(-c2cccc(Nc3nc(NCCN)nc4c3cnn4C)c2)c1 [Compound 1.11, N6-(2-aminoethyl)-N4-{3′-methoxy-[1,1′-biphenyl]-3-yl}-1-methyl-1H-pyrazolo[3,4-d]pyrimidine-4,6-diamine] | – | – | 1060 | 762
10 | CC1CC(Nc2nc(NC[C@H](N)c3ccccc3)nc3c2cnn3C)C1 (stereo partly drawn) [Compound 4.87, N6-[(2R)-2-amino-2-phenyl-ethyl]-1-methyl-N4-(3-methylcyclobutyl)pyrazolo[3,4-d]pyrimidine-4,6-diamine] | 70.9 | 50.7 | – | –
11 | Cc1nn(C)c2nc(NCC(C)(C)N)nc(NCc3ccc(-c4ccccc4)cc3)c12 [Compound 1.31, N6-(2-amino-2-methylpropyl)-N4-({[1,1′-biphenyl]-4-yl}methyl)-1,3-dimethyl-1H-pyrazolo[3,4-d]pyrimidine-4,6-diamine] | – | – | 814 | 950
12 | Cn1ncc2c(NC(C)(C)C)nc(NCC(C)(N)c3ccccc3)nc21 (stereo not drawn) [Compound 4.51, N6-(2-amino-2-phenyl-propyl)-N4-tert-butyl-1-methyl-pyrazolo[3,4-d]pyrimidine-4,6-diamine] | 1810 | 581 | – | –
